Assay [1] has as its target human adenosine A1 receptor (Homo sapiens (Human), UniProt P30542). The assay can be described thus: Adenosine receptor inhibition binding assay, [3H]DPCPX, A1 receptor membranes. Particulars: 1 nM [3H]DPCPX, 25° C., 1 h, Ki from IC50 by Cheng-Prusoff; for Ki: read-out: A1 pKi (converted). As to the method: (§1) Inhibition binding assays were performed using 0.2 µg of membranes prepared from HEK293 cells infected with BacMam human adenosine A2A receptor or 1.4 µg of membranes prepared from HEK293 cells infected with BacMam human adenosine A1 receptor. Membranes were incubated in 50 mM Tris-HCl (HEK293-hA2A; pH 7.4) or 50 mM Tris-HCl, 100 mM NaCl, 10 mM MgCl2 (CHO-hA1; pH 7.4) in the presence of varying concentrations of test compound and 1 nM [^3H]ZM241385 (HEK293-hA2A) or [^3H]DPCPX (CHO-hA1) at 25° C. for 1 h. The assay was then terminated by rapid filtration onto GF/B grade Unifilter plates using a TomTec cell harvester, followed by 5 × 0.5 ml washes with ddH2O. Nonspecific binding was defined in the presence of 1 µM CGS 15943 (HEK293-hA2A) or 1 µM DPCPX (CHO-hA1). Bound radioactivity was determined by liquid scintillation counting and inhibition curves were analysed using a four-parameter logistic equation. IC50 values were converted to Ki values with the Cheng-Prusoff equation using a KD value derived from saturation binding studies.

In assay [2] the target is human adenosine A2A receptor (Homo sapiens (Human), UniProt P29274). The assay can be described thus: Adenosine receptor inhibition binding assay, [3H]ZM241385, HEK293 A2A receptor membranes. Particulars: 1 nM [3H]ZM241385, HEK293-hA2A membranes, 25° C., 1 h, Ki from IC50 by Cheng-Prusoff; for Ki: read-out: A2A pKi (converted). As to the method: as §1

Bounds are passed on as bounds.

human adenosine A1 receptor, sequence (P30542 whole entry): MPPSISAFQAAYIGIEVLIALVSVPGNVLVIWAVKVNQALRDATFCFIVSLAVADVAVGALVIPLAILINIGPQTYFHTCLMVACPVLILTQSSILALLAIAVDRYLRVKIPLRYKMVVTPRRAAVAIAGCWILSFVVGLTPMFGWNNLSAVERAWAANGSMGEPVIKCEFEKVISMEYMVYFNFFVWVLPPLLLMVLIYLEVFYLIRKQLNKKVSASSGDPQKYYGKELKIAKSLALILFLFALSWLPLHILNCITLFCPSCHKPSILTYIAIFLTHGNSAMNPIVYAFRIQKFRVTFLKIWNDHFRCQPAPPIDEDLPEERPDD
human adenosine A2A receptor, sequence (P29274 whole entry): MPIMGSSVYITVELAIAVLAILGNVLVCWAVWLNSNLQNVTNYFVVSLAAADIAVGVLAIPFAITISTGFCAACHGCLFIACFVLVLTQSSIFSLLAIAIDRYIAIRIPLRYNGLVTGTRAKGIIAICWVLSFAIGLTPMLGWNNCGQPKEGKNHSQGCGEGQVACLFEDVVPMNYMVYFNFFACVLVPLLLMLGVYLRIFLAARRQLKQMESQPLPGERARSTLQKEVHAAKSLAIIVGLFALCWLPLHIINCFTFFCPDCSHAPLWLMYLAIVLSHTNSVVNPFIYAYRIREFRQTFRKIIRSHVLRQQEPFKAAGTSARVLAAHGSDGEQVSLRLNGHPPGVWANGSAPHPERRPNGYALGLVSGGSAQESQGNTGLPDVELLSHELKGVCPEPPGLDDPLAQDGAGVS

Consider `Cc1cc(-c2c(-c3ccccc3)nc(N)n3c(=O)n(Cc4nonc4C)nc23)cc(C)n1` [Example 1-19, 5-amino-8-(2,6-dimethyl-4-pyridyl)-2-[(4-methyl-1,2,5-oxadiazol-3-yl)methyl]-7-phenyl-[1,2,4]triazolo[4,3-c]pyrimidin-3-one], for which the “A1 pKi” value in assay [1] is listed as 7.2. In addition, in assay [2], the “A2A pKi” value is given as 9.6.

As to `Cc1cc(-c2c(-c3ccccc3)nc(N)n3c(=O)n(Cc4ncco4)nc23)cc(C)n1` [Example 1-9, 5-amino-8-(2,6-dimethyl-4-pyridyl)-2-(oxazol-2-ylmethyl)-7-phenyl-[1,2,4]triazolo[4,3-c]pyrimidin-3-one], the “A1 pKi” value in assay [1] was 7.0. The “A2A pKi” value in assay [2] was 9.1.

With `Cc1cc(-c2c(-c3ccccc3)nc(N)n3c(=O)n(C[C@@H]4C[C@H](O)CN4C)nc23)cc(C)n1` [Example 2-25, 5-amino-8-(2,6-dimethyl-4-pyridyl)-2-[[(2S,4S)-4-hydroxy-1-methyl-pyrrolidin-2-yl]methyl]-7-phenyl-[1,2,4]triazolo[4,3-c]pyrimidin-3-one], the “A2A pKi” value in assay [2] is listed as 8.8.

As for `Cc1cc(-c2c(-c3ccccc3)nc(N)n3c(=O)n(CCn4cccn4)nc23)cc(C)n1` [Example 1-1, 5-amino-8-(2,6-dimethyl-4-pyridyl)-7-phenyl-2-(2-pyrazol-1-ylethyl)-[1,2,4]triazolo[4,3-c]pyrimidin-3-one], the “A1 pKi” value in assay [1] is recorded as 6.2. Moreover, in assay [2], the “A2A pKi” value came to 7.5.

Take `COc1cc(-c2c(-c3ccccc3)nc(N)n3c(=O)n(C[C@H]4CCCO4)nc23)cc(C)n1` [Example 2-27, 5-amino-8-(2-methoxy-6-methyl-4-pyridyl)-7-phenyl-2-[[(2R)-tetrahydrofuran-2-yl]methyl]-[1,2,4]triazolo[4,3-c]pyrimidin-3one]: in assay [1], the “A1 pKi” value was 6.7. Besides, the “A2A pKi” value in assay [2] amounted to 9.6.

As to `Cc1cc(-c2c(-c3ccccc3)nc(N)n3c(=O)n(Cc4nn[nH]n4)nc23)cc(C)n1` [Example 1-26, 5-amino-8-(2,6-dimethyl-4-pyridyl)-7-phenyl-2-(2H-tetrazol-5-ylmethyl)-[1,2,4]triazolo[4,3-c]pyrimidin-3-one], the “A1 pKi” value in assay [1] is less than 5.4. Further, in assay [2], the “A2A pKi” value was 6.4.

As for `Nc1nc(-c2ccc(F)cc2)c(-c2cc(Cl)nc(CO)c2)c2nn(C[C@H]3CCCO3)c(=O)n12` [Example 2-34, 5-amino-8-[2-chloro-6-(hydroxymethyl)-4-pyridyl]-7-(4-fluorophenyl)-2-[[(2R)-tetrahydrofuran-2-yl]methyl]-[1,2,4]triazolo[4,3-c]pyrimidin-3-one], in assay [1], the “A1 pKi” value worked out at 6.3. Moreover, the “A2A pKi” value in assay [2] is listed as 9.4.

As for `Cc1ocnc1Cn1nc2c(-c3cc(C)[n+]([O-])c(C)c3)c(-c3ccccc3)nc(N)n2c1=O` [Example 1-34, 5-amino-8-(2,6-dimethyl-1-oxido-pyridin-1-ium-4-yl)-2-[(5-methyloxazol-4-yl)methyl]-7-phenyl-[1,2,4]triazolo[4,3-c]pyrimidin-3-one], the “A1 pKi” value in assay [1] was 7.5. Further, the “A2A pKi” value in assay [2] is on record as 9.2.

`COc1cccc(-c2nn(Cc3ccccc3)cc2Cn2nc3c(-c4cc(C)nc(C)c4)c(-c4ccccc4)nc(N)n3c2=O)c1` [Example 1-33, 5-amino-2-[[1-benzyl-3-(3-methoxyphenyl)pyrazol-4-yl]methyl]-8-(2,6-dimethyl-4-pyridyl)-7-phenyl-[1,2,4]triazolo[4,3-c]pyrimidin-3-one]: the “A1 pKi” value in assay [1] was found to be 7.1. In assay [2], the “A2A pKi” value was 8.1.

On to `Cc1cc(-c2c(-c3ccccc3)nc(N)n3c(=O)n(Cc4ccon4)nc23)cc(C)n1` [Example 1-13, 5-amino-8-(2,6-dimethyl-4-pyridyl)-2-(isoxazol-3-ylmethyl)-7-phenyl-[1,2,4]triazolo[4,3-c]pyrimidin-3-one], for which the “A1 pKi” value in assay [1] was found to be 6.8. Moreover, in assay [2], the “A2A pKi” value amounted to 8.9.

Turning to `Cc1cc(-c2c(-c3ccccc3)nc(N)n3c(=O)n(Cc4coc(C)n4)nc23)cc(C)n1` [Example 1-15, 5-amino-8-(2,6-dimethyl-4-pyridyl)-2-[(2-methyloxazol-4-yl)methyl]-7-phenyl-[1,2,4]triazolo[4,3-c]pyrimidin-3-one], the “A1 pKi” value in assay [1] was 6.7. The “A2A pKi” value in assay [2] was found to be 8.9.

As for `COCCN1CCC[C@H]1Cn1nc2c(-c3cc(C)nc(C)c3)c(-c3ccccc3)nc(N)n2c1=O` [Example 2-9, 5-amino-8-(2,6-dimethyl-4-pyridyl)-2-[[(2S)-1-(2-methoxyethyl)pyrrolidin-2-yl]methyl]-7-phenyl-[1,2,4]triazolo[4,3-c]pyrimidin-3-one], the “A1 pKi” value in assay [1] was found to be 6.1. The “A2A pKi” value in assay [2] was determined as 8.4.

For the molecule `[2H]c1c([2H])c([2H])c(-c2nc(N)n3c(=O)n(Cc4ncoc4C)nc3c2-c2cc(Cl)nc(CO)c2)c([2H])c1[2H]` [Example 1-57, 5-amino-8-[2-chloro-6-(hydroxymethyl)-4-pyridyl]-2-[(5-methyloxazol-4-yl)methyl]-7-(2,3,4,5,6-pentadeuteriophenyl)-[1,2,4]triazolo[4,3-c]pyrimidin-3-one], the Ki was 126 nM in assay [1] and 0.1 nM in assay [2].

For the molecule `Cc1cc(-c2c(-c3ccccc3)nc(N)n3c(=O)n(C[C@@H]4CCCN4C)nc23)cc(C)n1` [Example 2-8, 5-amino-8-(2,6-dimethyl-4-pyridyl)-2-[[(2S)-1-methylpyrrolidin-2-yl]methyl]-7-phenyl-[1,2,4]triazolo[4,3-c]pyrimidin-3-one], the “A1 pKi” value in assay [1] was 6.8. Further, the “A2A pKi” value in assay [2] is reported as 9.0.

Turning to `Cc1ocnc1Cn1nc2c(-c3cc(Cl)nc(CO)c3)c(-c3ccccc3)nc(N)n2c1=O` [Example 1-54, 5-amino-8-[2-chloro-6-(hydroxymethyl)-4-pyridyl]-2-[(5-methyloxazol-4-yl)methyl]-7-phenyl-[1,2,4]triazolo[4,3-c]pyrimidin-3-one], the “A1 pKi” value in assay [1] turned out to be 7.2. For the same molecule, in assay [2], the “A2A pKi” value stood at 9.7.

Regarding `Cc1cc(-c2c(-c3ccccc3)nc(N)n3c(=O)n(CC4CCCN4)nc23)cc(C)n1` (stereo not shown) [Example 2-5, 5-amino-8-(2,6-dimethyl-4-pyridyl)-7-phenyl-2-(pyrrolidin-2-ylmethyl)-[1,2,4]triazolo[4,3-c]pyrimidin-3-one], the “A1 pKi” value in assay [1] was 6.1. Further, the “A2A pKi” value in assay [2] was determined as 7.4.

With `Cc1cc(-c2c(-c3ccccc3)nc(N)n3c(=O)n(C[C@@H]4CC(F)(F)CN4C)nc23)cc(C)n1` [Example 2-13, 5-amino-2-[[(2S)-4,4-difluoro-1-methyl-pyrrolidin-2-yl]methyl]-8-(2,6-dimethyl-4-pyridyl)-7-phenyl-[1,2,4]triazolo[4,3-c]pyrimidin-3-one], the “A1 pKi” value in assay [1] was 6.3. Further, in assay [2], the “A2A pKi” value stood at 8.2.

In the case of `Cc1cc(-c2c(-c3ccccc3)nc(N)n3c(=O)n(C[C@@H]4C[C@H](F)CN4)nc23)cc(C)n1` [Example 2-20, 5-amino-8-(2,6-dimethyl-4-pyridyl)-2-[[(2S,4S)-4-fluoropyrrolidin-2-yl]methyl]-7-phenyl-[1,2,4]triazolo[4,3-c]pyrimidin-3-one], the “A1 pKi” value in assay [1] amounted to 6.3. Further, in assay [2], the “A2A pKi” value is reported as 8.5.

Consider `[2H]c1c([2H])c([2H])c(-c2nc(N)n3c(=O)n(Cc4nccn4C)nc3c2-c2cc(Cl)nc(CO)c2)c([2H])c1[2H]` [Example 1-56, 5-amino-8-[2-chloro-6-(hydroxymethyl)-4-pyridyl]-2-[(1-methylimidazol-2-yl)methyl]-7-(2,3,4,5,6-pentadeuteriophenyl)-[1,2,4]triazolo[4,3-c]pyrimidin-3-one], for which the Ki in assay [1] is 5.01 nM; in assay [2], 0.158 nM.

For the molecule `Cc1cc(-c2c(-c3ccccc3)nc(N)n3c(=O)n(CCN4CCCC4)nc23)cc(C)n1` [Example 2-26, 5-amino-8-(2,6-dimethyl-4-pyridyl)-7-phenyl-2-(2-pyrrolidin-1-ylethyl)-[1,2,4]triazolo[4,3-c]pyrimidin-3-one], in assay [1], the “A1 pKi” value was less than 5.7. The “A2A pKi” value in assay [2] is recorded as 6.9.

Regarding `Cc1cc(-c2c(-c3ccccc3)nc(N)n3c(=O)n(C[C@H]4C[C@@H](F)CN4)nc23)cc(C)n1` [Example 2-19, 5-amino-8-(2,6-dimethyl-4-pyridyl)-2-[[(2R,4R)-4-fluoropyrrolidin-2-yl]methyl]-7-phenyl-[1,2,4]triazolo[4,3-c]pyrimidin-3-one], in assay [1], the “A1 pKi” value was 6.2. In addition, the “A2A pKi” value in assay [2] came to 8.0.

Turning to `Cc1cc(-c2c(-c3ccccc3)nc(N)n3c(=O)n(C[C@@H]4CCCO4)nc23)cc(C)n1` [Example 2-17, 5-amino-8-(2,6-dimethyl-4-pyridyl)-7-phenyl-2-[[(2S)-tetrahydrofuran-2-yl]methyl]-[1,2,4]triazolo[4,3-c]pyrimidin-3-one], the “A2A pKi” value in assay [2] worked out at 8.6.

For the molecule `Cc1cc(-c2c(-c3ccccc3)nc(N)n3c(=O)n(C[C@H]4C[C@@H](O)CN4C)nc23)cc(C)n1` [Example 2-24, 5-amino-8-(2,6-dimethyl-4-pyridyl)-2-[[(2R,4R)-4-hydroxy-1-methyl-pyrrolidin-2-yl]methyl]-7-phenyl-[1,2,4]triazolo[4,3-c]pyrimidin-3-one], the “A2A pKi” value in assay [2] turned out to be 8.8.

(Values after US20230271964A1, “5-AMINO-8-(4-PYRIDYL)-[1,2,4]TRIAZOLO[4,3-C]PYRIMIDIN-3-ONE COMPOUNDS FOR USE AGAINST CANCER” (ASTRAZENECA AB, priority 2020, published 2023).)
